According to PubChem BioAssay (NCI):
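Assay format: 96-well plates, 48-hour exposure. Definition used: TGI = concentration required for complete inhibition of growth.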 Where a SMILES comes first, the peptide text is derived from it. The star is where a group is joined. Cbz = O=C(OCc1ccccc1)*

Experiments:
Assay in all cases: NCI tumour cell line growth inhibition, 48 h
[1] = test system: SK-OV-3 ovarian
[2] = test system: HCT-15 colon
[3] = test system: SNB-75 CNS
[4] = test system: HCT-116 colon
[5] = test system: SF-268 CNS
[6] = test system: MCF7 breast
[7] = test system: SK-MEL-2 melanoma
[8] = test system: SW-620 colon
[9] = test system: BT-549 breast
[10] = test system: HOP-62 NSCLC
[11] = test system: RXF 393 renal
[12] = test system: IGROV1 ovarian
[13] = test system: CAKI-1 renal
[14] = test system: DU-145 prostate
[15] = test system: NCI-H226 lung
[16] = test system: PC-3 prostate
[17] = test system: UACC-62 melanoma
[18] = test system: UO-31 renal
[19] = test system: T-47D breast
[20] = test system: A498 renal

Row | Structure (SMILES) | TGI [1] [µM] | TGI [2] [µM] | TGI [3] [µM] | TGI [4] [µM] | TGI [5] [µM] | TGI [6] [µM] | TGI [7] [µM] | TGI [8] [µM] | TGI [9] [µM] | TGI [10] [µM] | TGI [11] [µM] | TGI [12] [µM] | TGI [13] [µM] | TGI [14] [µM] | TGI [15] [µM] | TGI [16] [µM] | TGI [17] [µM] | TGI [18] [µM] | TGI [19] [µM] | TGI [20] [µM]
1 | C=C(Nc1nc2ccc(C)cc2s1)C(=O)C(CC)C(=O)C(CC)CC1C(=O)NC(=O)NC1=O (stereo not given) | > 100 | > 100 | > 100 | > 100 | > 100 | > 100 | > 100 | > 100 | > 100 | > 100 | > 100 | > 100 | > 100 | > 100 | > 100 | > 100 | > 100 | > 100 | – | –
2 | CC(=O)N(C)CCc1c[nH]c2ccccc12 | > 100 | > 100 | > 100 | > 100 | > 100 | > 100 | > 100 | > 100 | > 100 | > 100 | – | > 100 | > 100 | > 100 | > 100 | > 100 | > 100 | > 100 | > 100 | –
3 | COC(=O)NC(C(F)(F)F)(C(F)(F)F)P1(=O)OCCCO1 | 55.7 | 59 | > 100 | 62 | 73.8 | > 100 | – | 82.4 | 68.3 | 58.6 | 15 | 68.8 | – | > 100 | 98.7 | > 100 | 33.2 | 65.6 | 84.3 | 38
4 | CN1C(=O)C2CCCC(=O)N2c2cccnc21 (stereo not given) | – | > 100 | – | > 100 | > 100 | > 100 | > 100 | > 100 | > 100 | > 100 | – | > 100 | > 100 | > 100 | > 100 | – | > 100 | > 100 | > 100 | –
5 | N#Cc1c(-c2ccc(Cl)cc2)c(C#N)c(=O)n(NS(=O)(=O)c2ccccc2)c1O | 79 | 62.3 | > 100 | 33.1 | > 100 | 42.9 | 44 | > 100 | 32.8 | > 100 | 69.6 | > 100 | 48 | – | > 100 | 48.8 | 29.6 | – | – | 70.1
6 | CCOC(=O)/C=C(/C(=O)OCC)n1cnc2c(=O)[nH]c(NC(C)=O)nc21 | > 100 | > 100 | > 100 | > 100 | > 100 | > 100 | > 100 | > 100 | > 100 | > 100 | – | > 100 | > 100 | > 100 | > 100 | > 100 | > 100 | > 100 | > 100 | > 100
7 | O=C(N(O)c1ccccc1Cl)C(O)(c1ccccc1)c1ccccc1 | > 100 | > 100 | – | > 100 | > 100 | > 100 | > 100 | > 100 | > 100 | > 100 | > 100 | > 100 | > 100 | > 100 | > 100 | > 100 | > 100 | 57.9 | > 100 | > 100
8 | O=C(Cn1c(-c2ccccc2)cc2ccccc21)N1CCCC1 | > 100 | > 100 | > 100 | > 100 | > 100 | > 100 | > 100 | > 100 | > 100 | > 100 | – | > 100 | – | > 100 | > 100 | > 100 | > 100 | > 100 | > 100 | –
9 | COC(=O)c1nsc(OC)c1Cl | > 100 | > 100 | > 100 | > 100 | > 100 | > 100 | – | > 100 | > 100 | > 100 | > 100 | > 100 | > 100 | > 100 | > 100 | > 100 | > 100 | > 100 | – | –
10 | CC1=C(/C=C/C(C)=C/C=C/C(C)=C/C(=O)OC2CC(n3cc(F)c(=O)[nH]c3=O)OC2CO)C(C)(C)CCC1 (stereo not given) | 19.7 | 27.6 | 18.6 | 14.4 | 19.5 | 19.5 | 55.5 | 26.9 | 22.3 | 13.7 | 24 | 24.6 | 16.9 | 13.4 | 52.7 | 20.8 | 4.96 | 14.9 | 21.2 | –
11 | COc1ccc(C[C@H]2COC(=O)[C@@H]2Cc2cccc(Br)c2)cc1OC | 66.4 | > 100 | 55.5 | > 100 | > 100 | 63.2 | 73.5 | 83.3 | 61.2 | > 100 | 77.6 | > 100 | 30 | > 100 | > 100 | 53.6 | > 100 | 82.3 | > 100 | –
12 | C=CCN1CCC(O)(c2cc(C(=O)OCC)[nH]c2-c2cc(C)no2)C1 (stereo not given) | > 100 | > 100 | > 100 | > 100 | > 100 | – | > 100 | > 100 | > 100 | – | > 100 | > 100 | > 100 | > 100 | > 100 | > 100 | > 100 | > 100 | > 100 | > 100
13 | COC(=O)C1=C(O)c2ccc(Cl)cc2S(=O)(=O)N1C | > 100 | > 100 | – | > 100 | > 100 | > 100 | > 100 | > 100 | > 100 | – | > 100 | > 100 | > 100 | > 100 | – | > 100 | > 100 | – | > 100 | > 100
14 | CC(C)[Si]1(C(C)C)OCC2OC3(CO)C(Oc4nc(=O)ccn43)C2O[Si](C(C)C)(C(C)C)O1 (stereo not given) | 36.3 | 28.5 | 30.7 | 24.7 | 35.6 | 18.6 | 30.5 | 34.7 | 24.9 | 29.2 | 18.3 | 33 | 29.4 | 27.7 | 31 | 17.7 | 26.8 | 27.2 | 24 | –
15 | CC(C)(C)OC/C=C(/CO)[C@@H]1C=C[C@H](O)C1 | > 100 | > 100 | > 100 | > 100 | > 100 | > 100 | > 100 | > 100 | > 100 | > 100 | – | – | > 100 | – | > 100 | > 100 | > 100 | > 100 | > 100 | > 100
16 | COc1ccc(-c2cc3ccccc3oc2=O)cc1OC | 71 | > 100 | > 100 | > 100 | > 100 | > 100 | > 100 | > 100 | > 100 | > 100 | > 100 | > 100 | > 100 | > 100 | > 100 | – | > 100 | > 100 | > 100 | > 100
17 | CCOC(=O)NNC(=O)NCCCCNC(=O)NNC(=O)OCC | > 100 | > 100 | > 100 | > 100 | – | – | > 100 | > 100 | > 100 | > 100 | > 100 | > 100 | > 100 | > 100 | > 100 | > 100 | > 100 | > 100 | > 100 | > 100
18 | COCOC1C=CCCCC2=CC(C)=C(CC1)O2 (stereo not given) | > 100 | > 100 | > 100 | > 100 | > 100 | > 100 | – | > 100 | > 100 | > 100 | > 100 | > 100 | > 100 | > 100 | > 100 | > 100 | > 100 | > 100 | – | > 100
19 | CC(NC(=O)C(NC(=O)OCc1ccccc1)C(C)C)C(=O)NCC(=O)O (stereo not drawn) (Cbz-Val-Ala-Gly-OH; configuration not given here) | > 100 | > 100 | – | > 100 | > 100 | > 100 | > 100 | > 100 | > 100 | > 100 | > 100 | > 100 | > 100 | > 100 | > 100 | > 100 | > 100 | > 100 | > 100 | –
20 | Cn1c2ccccc2c(=O)c2cccc(C(=O)NC(CS)C(=O)O)c21 (stereo not given) | > 100 | > 100 | > 100 | > 100 | > 100 | > 100 | > 100 | > 100 | > 100 | > 100 | – | > 100 | > 100 | > 100 | > 100 | > 100 | > 100 | > 100 | > 100 | > 100
21 | O=C1NC(N/N=C\C(O)C(O)C(O)C(O)CO)=N/C1=C/c1ccc(Cl)cc1 (stereo not given) | > 100 | > 100 | > 100 | > 100 | > 100 | > 100 | > 100 | > 100 | > 100 | > 100 | > 100 | > 100 | > 100 | > 100 | > 100 | > 100 | – | > 100 | > 100 | > 100
22 | CCCC(=O)N1CCN(c2ccc3c(c2)OC(C)O3)CC1 (stereo not given) | > 100 | > 100 | > 100 | > 100 | > 100 | > 100 | – | > 100 | > 100 | > 100 | > 100 | > 100 | > 100 | > 100 | > 100 | > 100 | > 100 | > 100 | > 100 | > 100
23 | CC1(C)OC[C@@H]([C@H](O)C2C=CC(=O)S2)O1 (stereo not given in full) | > 100 | 35.5 | > 100 | 27.3 | 38.8 | > 100 | 77.1 | 98.6 | 47.5 | > 100 | 53.5 | – | 72.4 | 56.6 | > 100 | > 100 | 35.9 | 50 | – | 51.1
24 | CNCCCn1c2ccccc2c2c3c(c(-c4ccsc4)cc21)C(=O)NC3=O | 2.63 | 2.74 | 3.43 | 2.79 | 4 | – | – | 2.92 | 13.7 | 2.24 | 1.25 | 2.4 | 2.44 | 1.89 | 23.6 | 1.78 | – | 0.218 | – | < 0.0254
25 | O=c1oc2c/c(=C\c3ccc([N+](=O)[O-])cc3)c(=O)c3cccc1c3-2 | > 100 | > 100 | 88.6 | > 100 | > 100 | > 100 | > 100 | > 100 | > 100 | > 100 | – | > 100 | – | > 100 | – | > 100 | > 100 | > 100 | > 100 | –
26 | Cc1nc2ccc(F)cc2c2c1CCN2c1ccc(Cl)cc1 | > 100 | > 100 | > 100 | 36.2 | > 100 | 26.4 | 41.4 | 54.8 | 67.2 | 56.4 | 55.7 | 40 | 79.6 | > 100 | 72.2 | 22.7 | 39.1 | 78.3 | – | 73.1
